Measurements from the CheMixHub viscosity set.

Experiment: xn = mol fraction of the nth substance listed

CCCCCCCCCCC + CCCCCCCO
viscosity [mPa·s], 100 kPa
Conditions | x1 = 0.0999 | x1 = 0.1998 | x1 = 0.3007 | x1 = 0.399 | x1 = 0.5004 | x1 = 0.5988 | x1 = 0.7002 | x1 = 0.8004 | x1 = 0.8983
293.15 K | 5.317 | 4.102 | 3.124 | 2.518 | 2.05 | 1.798 | 1.547 | 1.383 | 1.239
298.15 K | 4.517 | 3.516 | 2.713 | 2.219 | 1.831 | 1.626 | 1.407 | 1.263 | 1.137
303.15 K | 3.86 | 3.037 | 2.378 | 1.975 | 1.654 | 1.47 | 1.284 | 1.158 | 1.048
308.15 K | 3.32 | 2.641 | 2.202 | 1.816 | 1.537 | 1.342 | 1.176 | 1.063 | 0.968
313.15 K | 2.876 | 2.315 | 1.956 | 1.633 | 1.369 | 1.229 | 1.078 | 0.981 | 0.896
318.15 K | 2.509 | 2.089 | 1.751 | 1.477 | 1.247 | 1.128 | 0.994 | 0.908 | 0.833
323.15 K | 2.251 | 1.86 | 1.575 | 1.34 | 1.14 | 1.04 | 0.918 | 0.843 | 0.777

CCOC(=O)CCC(=O)OCC + CCCCCCO
293.15 K, 100 kPa
Conditions | viscosity [mPa·s]
x1 = 0.4999 | 2.495
x1 = 0.7999 | 2.495

OCCCl + CCCCCCO
viscosity [mPa·s], 101.33 kPa
Conditions | x1 = 0.097 | x1 = 0.1953 | x1 = 0.2962 | x1 = 0.3953 | x1 = 0.5314 | x1 = 0.5962 | x1 = 0.7121 | x1 = 0.7968 | x1 = 0.8982
298.15 K | 3.93 | 3.7 | 3.544 | 3.406 | 3.241 | 3.175 | 3.057 | 2.983 | 2.921
303.15 K | 3.33 | 3.18 | 3.068 | 2.909 | 2.78 | 2.718 | 2.615 | 2.551 | 2.529
308.15 K | 2.824 | 2.68 | 2.572 | 2.494 | 2.38 | 2.329 | 2.276 | 2.237 | 2.208
